{"source": "patent US7897772B2", "about": "“Acid addition salt of irinotecan” (priority 2004, dated 2011)", "key": {"[1]": {"test": "Dissolution of irinotecan acid addition salts in water at 100 mg/mL at room temperature and state of the solution after 6 days of stirring (Example 1)", "format": "physicochemical", "conditions": "for State of the Solution after Day 6 (footnote symbol: salt not dissolved): 100 mg/mL in water at room temperature; for Dissolution of the salt in water at room temperature: salt content adjusted to 100 mg/mL, no heating", "method": "To an aqueous suspension of irinotecan (1-ethyl-10-[4-(1-piperidino)-1-piperidino]carbonyloxycamptothecin) produced through the method disclosed in Patent Document 1, each acid species was added, to thereby produce a corresponding irinotecan acid addition salt. The irinotecan acid addition salt content was adjusted to 100 mg/mL. […] Each of the aqueous solutions employing sulfuric acid, phosphoric acid methanesulfonic acid, citric acid, maleic acid, and succinic acid, respectively, was filtered by a membrane filter, and the filtrate was stirred at room temperature (25° C.). After continuous stirring for 6 days, the aqueous solution was visually observed so as to evaluate the state of the solution."}, "[2]": {"test": "Dissolution of 100 mg/mL salt suspensions on heating and later crystal deposition at 25° C. (Example 2)", "format": "physicochemical", "conditions": "for Dissolution on heating: 100 mg/mL", "method": "The thus-produced irinotecan nitric acid addition salt solution was stirred at 25° C. After stirring of the solution for about 42 hours, crystals of the irinotecan nitric acid addition salt were deposited."}}, "note": "Structures can show the parent of a compound that is named as a salt."}
{"smiles": "Br.CCc1c2c(nc3ccc(OC(=O)N4CCC(N5CCCCC5)CC4)cc13)-c1cc3c(c(=O)n1C2)COC(=O)C3(O)CC", "note": "(stereo not shown) [Irinotecan hydrobromic acid addition salt, reference compound]", "values": [{"measurement": "State of the Solution after Day 6 (footnote symbol: salt not dissolved)", "setting": "[1]", "result": "*1"}, {"measurement": "Dissolution of the salt in water at room temperature", "setting": "[1]", "result": "not dissolved in water at room temperature"}, {"measurement": "Dissolution on heating", "setting": "[2]; stirred at 100° C. for 30 minutes", "result": "maintained undissolved"}]}
{"smiles": "CCc1c2c(nc3ccc(OC(=O)N4CCC(N5CCCCC5)CC4)cc13)-c1cc3c(c(=O)n1C2)COC(=O)[C@]3(O)CC", "note": "[Irinotecan nitric acid addition salt, irinotecan nitric acid salt]", "values": [{"measurement": "State of the Solution after Day 6 (footnote symbol: salt not dissolved)", "setting": "[1]", "result": "*1"}, {"measurement": "Dissolution of the salt in water at room temperature", "setting": "[1]; listed as nitric acid", "result": "not dissolved in water at room temperature"}, {"measurement": "Stirring time after which crystals were deposited", "setting": "[2]; 100 mg/mL solution dissolved by heating, then stirred at 25° C.", "result": "about 42 hours"}, {"measurement": "Dissolution on heating", "setting": "[2]; 70° C. under stirring for three minutes", "result": "completely dissolved"}]}
